No end group written: not given here.

The target of experiment [1] is T1, purple membrane (PM) (Halobacterium salinarum, UniProt P02945).
T1 construct: The culture of Halobacterium halobium and PM isolation were carried out following a standard procedure; endogenous in cells; host or cells: Halobacterium halobium culture; purple membrane isolated by the standard procedure (Oesterhelt & Stoeckenius)
T1 sequence (P02945 14-261 limits assumed): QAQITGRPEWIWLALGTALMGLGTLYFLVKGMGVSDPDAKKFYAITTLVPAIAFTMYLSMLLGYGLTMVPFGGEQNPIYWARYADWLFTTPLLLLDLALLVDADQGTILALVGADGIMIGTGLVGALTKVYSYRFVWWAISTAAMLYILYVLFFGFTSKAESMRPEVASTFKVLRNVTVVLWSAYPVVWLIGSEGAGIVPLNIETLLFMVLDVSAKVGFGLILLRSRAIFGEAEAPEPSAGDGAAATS
Nature of the experiment: SPR binding of peptide to PM (KxV5-type SPR, Langmuir adsorption model). The note with it: PM patches as mobile phase.
Procedure: Binding affinity of peptide with PM was tested by using surface plasmon resonance (SPR), which can provide real-time monitoring of biomolecular interactions [46, 47]. The binding constant between PM and the peptide was calculated based on Langmuir adsorption, in which the following equation is applicable. (4) 1/R=1/(RmaxKACA)+1/Rmax Rmax is the maximum coverage, KA is the equilibrium adsorption constant, and CA is the concentration of adsorbate solution [48].
The culture of Halobacterium halobium and PM isolation were carried out following a standard procedure [49]. Purified PM was suspended in double-distilled water and stored at 4 °C. The buffer used in the experiments consisted of 10 mM Tris HCl with a pH value of 8.0.
The characterization of the peptides-PM binding interaction was accomplished with the surface plasmon resonance technique (KxV5-type SPR, Plexera, Woodinville, WA, USA). […] The peptides were introduced to the surface of the gold chip in advance as stationary phase. SPR chip was modified by thiol molecules containing carboxyl to form self-assembled layer. 5 mL of carboxyl thiols (dithiosole-COOH, 1 μM) and hydroxy-dithiol molecule (dithiosole-OH, 10 μM) mixing ethanol solution was dropped on a SPR chip surface, and then the remaining liquid was removed by suction after 15 min of adsorption. After rinsing with ethanol, the carboxyl-terminated SAM on the chip surface underwent EDC/NHS activation. PM patches were introduced as a mobile phase. Based on the Langmuir adsorption model, the kinetic parameters and the binding constant were calculated using Plexera software.

Experiment [2] concerns the target T1, purple membrane (PM). In words: Directional PM assembly on Peptide-3 modified silicon, AFM and surface potential. The note with it: side attributed from surface potential; PM adsorbed on peptide modified silicon (EDC/NHS). As for the experimental part: The peptide was modified on silicon substrates via 1-ethyl-3-(3-(dimethylamino)propyl) carbodiimide (EDC)/N-hydroxysuccinimide(NHS) coupling for an oriented PM assembly. The silicon surface is treated with oxygen plasma first for hydroxyl group generation and then followed by (3-aminopropyl)triethoxysilane (APTES) modification for an amino-terminated surface. Then, introduction of succine anhydride leads to a carboxyl-terminated self-assembled monolayer (SAM) on the silicon surface, followed by EDC/NHS activation to immobilized peptides onto the silicon surface. […] This observation is consistent with the SPR measurements on the binding affinity of peptide with PM. The surface potential analyses of PM patches on silicon substrate are labeled by lines in EFM-potential images and their sectional analyses were done. […]
The topographic and surface potential images were obtained using a Bruker Dimension Icon microscope in a two-pass operation mode slightly different from the EFM measurement mentioned above. […] The deflection amplitude of the probe in lift mode was monitored, which was linearly proportional to the electrical force imposed on the probe. […]

Broadly, the Kd is the constant that tells how readily two partners part at equilibrium. GARGIMIGTGLVGALTDVYSYDF: the kon at purple membrane (PM) [1] (peptide immobilised on gold chip (carboxyl-terminated SAM, EDC/NHS), Plexera software, buffer used in the experiments 10 mM Tris HCl pH 8.0, read-out: adsorption rate constant ka) was 283 M⁻¹ s⁻¹. In addition, at purple membrane (PM) [1] (peptide immobilised on gold chip (carboxyl-terminated SAM, EDC/NHS), Plexera software, buffer used in the experiments 10 mM Tris HCl pH 8.0, read-out: dissociation rate constant kd), the koff was 0.00238 s⁻¹. The Kd on purple membrane (PM) [1] (peptide immobilised on gold chip, buffer used in the experiments 10 mM Tris HCl pH 8.0, unit inferred, read-out: equilibrium dissociation constant KD) is 8.43 µM. The “orientation of PM on peptide-modified silicon” value on purple membrane (PM) [2] is “identical orientation of the PM on surface”.

Values taken from PMC5245739, “Nanoscale Electric Characteristics and Oriented Assembly of Halobacterium salinarum Membrane Revealed by Electric Force Microscopy” (Nanomaterials, 2016).
